Literature values, collected in patent publication US20160338997A1, “KELOID REDUCTION USING TOPICAL ALLANTOIN” (Scioderm, Inc., priority 2013, published 2016).

Details: emulsion pH 6.8 to 7.5; with time and in accelerated stability tests at 40° C

In the case of `NC(=O)NC1NC(=O)NC1=O` (stereo not shown) [allantoin], the degradation of allantoin is given as “degrades significantly”.
